Results on two compounds are retold here after PMC7031302, “Design and synthesis of new energy restriction mimetic agents: Potent anti-tumor activities of hybrid motifs of aminothiazoles and coumarins” (Scientific Reports, 2020).

pIC50: −log10 of the molar value. A value given as a limit tells only on which side of the number the result lay.

What all share (assay type): cell-based, Human
The test system of test [1] is colorectal cancer cell lines, HCT116 and HT-29. Nature of the test: MTT cell viability, colorectal cancer cell lines (summary statements). The following applies: for anticancer activities in initial screening, in words: HT-29 and HCT116 cancer cell lines. On the procedure: The potential cytotoxicity of 24 candidate compounds was initially evaluated at a single concentration level (5 μM). Then a full dose-response curve was plotted for each compound against different colorectal cancer cell lines (HCT116 and HT-29) by MTT assay after 72 h treatments. 4-hydroxycoumarin, OSU-CG5, and OSU-CG12 were used as positive controls. […] Compounds 9b, 9c, 9f, 9i, 11b, and 11c were selected for further studies to determine the full dose-response survival curves using different concentrations (0.1–20 µM) against CRC cell lines and normal fibroblast cell line (F180) at different time points (Fig. 2A–2F and supplementary material Page S63 and S64).
Human colorectal carcinoma cell lines (HCT116) and (HT-29) were obtained from the European Collection of Cell Cultures (ECACC, UK). The cell lines were cultured in Roswell Park Memorial Institute medium (RPMI-1640, Sigma-Aldrich-St. Louis, MO, USA) supplemented with 10% fetal bovine serum (Sigma-Aldrich-St. Louis, MO, USA) and 1% penicillin/streptomycin (Sigma-Aldrich- Louis, MO, USA). F180 cell line (Human Normal Fibroblast), was kindly given by professor Ekkehard Dikomey (University Cancer Center, Hamburg University, Hamburg, Germany) and were cultured in Dulbecco’s Modified Eagle’s medium (DMEM, Sigma-Aldrich-St. Louis, MO, USA) supplemented with 10% fetal bovine serum (Sigma-Aldrich-St. Louis, MO, USA) and 1% penicillin/streptomycin (Sigma-Aldrich- Louis, MO, USA). All cell incubations were done at 37 °C in a humidified atmosphere of 5% CO2.
Cell viability was assessed using, 3-(4,5-dimethylthiazol-2-yl)-2,5-diphenyltetrazolium bromide (MTT) assay as previously described. In summary, cancer cell lines or F180 were seeded in complete medium at the density of 3 × 10^3/well and 5 × 10^3/well respectively in 96 well flat-bottom plates. After 24 h, cells were incubated with the candidate compounds at the indicated concentration for (24, 48 or 72 h). DMSO was used as vehicle control and 4-Hydroxycoumarin was purchased from (Sigma-Aldrich, St. Louis, MO, USA) and Cisplatin from Hospira UK Ltd. At the end of treatment, the media were aspirated from each well and incubated with 200 µL of MTT tetrazolium dye (Sigma-Aldrich, St. Louis, MO, USA) at a final concentration of 0.5 mg/ml for 2 h at 37 °C. The reduced MTT crystals were solubilized in 200 µl/well of DMSO and the absorbance was measured at 570 nm using a microplate reader (Thermo-Scientific, Vantaa, Finland).

The test system of test [2] is Caspase 3/7 activities in HT-29 cells. The test can be described thus: Caspase 3/7 activity assay, HT-29. The following applies: HT-29, 72 h. Here is the method: Based on this, the energy restriction mediated anticancer activity of the new coumarin tagged aminothiazole derivatives was investigated. The expression levels of PARP, p-Akt, Akt, p-AMPK, AMPK, β-TrCP, LC3A/B-I, LC3A/B-II, caspase-3, cyclin D1, and Bcl-2 proteins were determined by Western blot analysis after 72 h treatment of HT-29 and HCT116 at different concentrations based on the IC50 values of each compound (Fig. 3A,B). […] Moreover, the treatment with 9b and 9f induced caspase 3/7 activation, which was detected by caspase 3/7 activity assay and confirmed by Western blot. The activation of caspases was significant in 9b in both cell lines and significant with 9f in HCT116 cells only and minimal in HT-29 cells (Fig. 3C,D). On the other hand, both 9b and 9f induced dose-dependent proteolytic processing of PARP. […] Besides, the protein expression level of the anti-apoptotic protein, Bcl-2, was reduced in HCT116 upon treatment with both compounds.
Caspase-3/7 activities in HT-29 and HCT116 cells treated with candidate compounds were measured using Caspase-Glo 3/7 assay kit (Promega, Madison, WI, USA) following the manufacturer’s instructions. […] 50 µL of lysate and 50 µL of caspase substrate were added to a white opaque 96-well plate, and the luminescence was measured by Varioskan Flash multimode reader (Thermo-Scientific, Vantaa, Finland)

The next test concerns HCT116. Nature of the test: ROS-Glo H2O2 assay, HCT116. The following applies: HCT116, 6 h incubation. The text has this:
(§1) According to previous studies, ERMAs inhibited glucose utilization in cancer cells[13],[19]. Therefore, we investigated glucose uptake (Fig. 5A) upon treatment with 9b and 9f in HT-29 and HCT116 cells at different concentrations based on the IC50 of each compound. […] This effect is known to result in the accumulation of reactive oxygen species (ROS) and could play a role in glucose deprivation-induced cytotoxicity and oxidative stress in cancer cells. […] The observed increase in ROS levels could lead to oxidative stress and extensive cell death in the absence of NADPH detoxification.
(§2) NADPH/NADP+ and ROS concentrations were measured using the NADP/NADPH-Glo Assay Kit (Promega, Madison, WI, USA) and ROS-Glo H2O2 Assay (Promega, Madison, WI, USA), respectively, based on the manufacturer instructions. In NADPH/NADP+ assay, CRC cells were seeded into a 96-well flat-bottomed plate and incubated overnight. On the following day, cells were treated with the testing compound or vehicle for 48 h. At the endpoint of treatment, the media were aspirated and replaced with 60 µl PBS/well, then cells were lysed in 60 µl base solution with 1% dodecyl (trimethyl) ammonium bromide (Sigma-Aldrich-St. Louis, MO, USA). […] Luminescence was measured after 30 minutes using Varioskan Flash multimode reader (Thermo Scientific). […] Luminescence was measured after 20 min incubation at room temperature.

A further test concerns CRC cells. Nature of the test: NADPH/NADP+ assay. The settings on record: 48 h treatment.
Excerpt: as §1, §2

For the next test, the system named is HT-29. The test can be described thus: Glucose uptake assay, HT-29. The following applies: HT-29, 16 h treatment, dose-dependent.
Excerpt: as §1
CRC cells (1 × 10^4) were seeded into a 96-well plate overnight. Cells were treated with test compounds or vehicle (negative control) glucose-free RPMI-1640 medium for 16 h; then, the cells were incubated with 2 mM 2-DG for 10 minutes. Eventually, glucose uptake of cells was measured using Glucose Uptake-Glo Assay (Promega, Madison, WI, USA) according to the manufacturer’s instructions. Luminescence was measured post 2 h of incubation at room temperature using Varioskan Flash multimode reader (Thermo Scientific). Glucose uptake was normalized to the total protein content in the samples using DC protein assay kit (Bio-Rad, Hercules, CA, USA).

On to `Cc1cc(=O)oc2cc(Nc3nc(-c4ccc(Br)cc4)cs3)ccc12` [Compound 9b, 7-(4-(4-Bromophenyl)thiazol-2-ylamino)-4-methyl-2H-chromen-2-one], for which the “anticancer activities in initial screening, in words” value in test [1] is “significant anticancer activities”. In test [1] (both cell lines, summary statement), the pIC50 (commonly the IC50 on a negative log10 scale, so that one unit is a factor of ten) is greater than 6.22. In test [2], the “activation of caspases (caspase 3/7)” value is “significant”. For the same compound, in the test on HCT116, the “generation of hydrogen peroxide (H2O2) and ROS” value was “significantly increased”. Also, the “NADPH/NADP+ ratio” value with CRC cells is reported as “significant decrease”. The glucose uptake result in the test on HT-29 was “inhibited significantly”.

In the case of `Cc1cc(=O)oc2cc(Nc3nc(-c4cccc([N+](=O)[O-])c4)cs3)ccc12` [Compound 9f, 4-Methyl-7-(4-(3-Nitrophenyl)thiazol-2-ylamino)-2H-chromen-2-one], in test [1], the “anticancer activities in initial screening, in words” value is given as “significant anticancer activities”. Moreover, the “activation of caspases (caspase 3/7)” value in test [2] is “minimal”. Further, in the test on HCT116, the “generation of hydrogen peroxide (H2O2) and ROS” value is “significantly increased”. The “NADPH/NADP+ ratio” value in the test with CRC cells is listed as “significant decrease”. Moreover, in the test on HT-29, the glucose uptake entry is reported as “inhibited significantly”.
